The subject of test [1] is MGC-803. The experiment in a line: cells. The note with it: Homo sapiens, MGC-803, 48 h.
Description: Antiproliferative activity against human MGC-803 cells assessed as inhibition of cell growth incubated for 48 hrs by MTT assay
The subject of test [2] is HCT-116. The test can be described thus: cells. Particulars: Homo sapiens, HCT-116, 48 h.
Description: Antiproliferative activity against human HCT-116 cells assessed as inhibition of cell growth incubated for 48 hrs by MTT assay
The test system of test [3] is KYSE-450. The test can be described thus: cells. The note with it: Homo sapiens, KYSE-450, 48 h.
Description: Antiproliferative activity against human KYSE-450 cells assessed as inhibition of cell growth incubated for 48 hrs by MTT assay
Test [4] concerns MGC-803. The experiment in a line: Antitumor activity against human MGC-803 cells xenografted in BALB/c nude mouse assessed as tumor growth inhibition at 25 mg/kg/day, ip administered every day for 21 days. Type of test: functional, organism-based. Particulars: time 21.0 day. Background: A xenograft is tissue or cells of one species grown in another, often human tumour cells in immunodeficient mice.

Test [5] concerns MGC-803. The test can be described thus: Antitumor activity against human MGC-803 cells xenografted in BALB/c nude mouse assessed as reduction in tumor weight at 25 mg/kg/day, ip administered every day for 21 days. Type of test: functional, organism-based. The note with it: time 21.0 day.
The subject of test [6] is MGC-803. The test can be described thus: Antitumor activity against human MGC-803 cells xenografted in BALB/c nude mouse assessed as reduction in tumor volume at 25 mg/kg/day, ip administered every day for 21 days. Type of test: functional, organism-based. Particulars: time 21.0 day.
In test [7] the target is Lysine-specific histone demethylase 1A (Homo sapiens, UniProt O60341). The experiment in a line: Inhibition of recombinant LSD1 (unknown origin) using H3K4me2 peptide as substrate preincubated for 10 mins followed by substrate addition and measured after 30 mins by amplex red based fluorescence microplate reader analysis.

Activity calls are given as the source filed them. No cut-off for these calls is given here.

In the case of `COc1ccc(CN(C(=O)CSC(=S)N2CCC(C)CC2)c2cc(OC)c(OC)c(OC)c2)cc1O`, the IC50 (in general, the point on the concentration scale where inhibition reaches its midpoint) was 380 nM in test [1], 890 nM in test [2] and 860 nM in test [3].

In the case of `COc1ccc(CN(C(=O)CSC(=S)N2CCN(c3ccc(Br)cc3)CC2)c2cc(OC)c(OC)c(OC)c2)cc1O`, the IC50 was 27 nM in test [1], 51 nM in test [2] and 36 nM in test [3].

For the molecule `CCN1CCN(C(=S)SCC(=O)N(Cc2ccc(OC)c(O)c2)c2cc(OC)c(OC)c(OC)c2)CC1`, the IC50 is 250 nM in test [1] and 310 nM in test [3].

For the molecule `COc1ccc(CN(C(=O)CSC(=S)N2CCC(O)CC2)c2cc(OC)c(OC)c(OC)c2)cc1O`, the IC50 in test [1] came out at 560 nM; in test [2], 800 nM; in test [3] it was 460 nM.

Take `COc1ccc(CN(C(=O)CSC(=S)N2CCCC(C)C2)c2cc(OC)c(OC)c(OC)c2)cc1O` (stereo not given): the IC50 came to 480 nM in test [1], 640 nM in test [2] and 530 nM in test [3].

Consider `CCOC(=O)C1CCN(C(=S)SCC(=O)N(Cc2ccc(OC)c(O)c2)c2cc(OC)c(OC)c(OC)c2)CC1`, for which the IC50 in test [1] was determined as 700 nM; in test [2], 690 nM; in test [3] it was 670 nM.

As to `COc1ccc(CN(C(=O)CSC(=S)N2CCN(c3ccccc3OC)CC2)c2cc(OC)c(OC)c(OC)c2)cc1O`, the IC50 came out at 120 nM in test [1], 240 nM in test [2] and 320 nM in test [3].

Regarding `COc1ccc(CN(C(=O)CSC(=S)N2CCN(C(C)C)CC2)c2cc(OC)c(OC)c(OC)c2)cc1O`, the IC50 in test [1] was 100 nM; in test [2], 160 nM; in test [3] it was 170 nM.

For the molecule `COc1ccc(/C=C\c2cc(OC)c(OC)c(OC)c2)cc1O`, the result in test [4], in test [5] and in test [6] was Active.

For the molecule `COc1ccc(CN(C(=O)CSC(=S)N2CCN(c3ccc([N+](=O)[O-])cc3)CC2)c2cc(OC)c(OC)c(OC)c2)cc1O`, the values for the IC50 in test [1], in test [2] and in test [3] were 54 nM, 67 nM and 72 nM, respectively.

Consider `COc1ccc(CN(C(=O)CSC(=S)N2CCN(c3ccc(F)cc3)CC2)c2cc(OC)c(OC)c(OC)c2)cc1O`, for which the IC50 in test [1] was determined as 39 nM; in test [2], 46 nM; in test [3] it was 67 nM.

In the case of `COc1ccc(CN(C(=O)CSC(=S)N2CCN(c3ccc(Cl)cc3)CC2)c2cc(OC)c(OC)c(OC)c2)cc1O`, the IC50 in test [1] came to 38 nM; in test [2] it was 59 nM; in test [3], 45 nM.

`COC(=O)N1CCN(C(=S)SCC(=O)N(Cc2ccc(OC)c(O)c2)c2cc(OC)c(OC)c(OC)c2)CC1`: the IC50 in test [1] worked out at 140 nM; in test [2], 160 nM; in test [3], 160 nM.

Turning to `COc1ccc(CN(C(=O)CSC(=S)N2CCN(C=O)CC2)c2cc(OC)c(OC)c(OC)c2)cc1O`, the results for the concentration for half-maximal inhibition (IC50) in test [1], in test [2] and in test [3] were 190 nM, 120 nM and 210 nM, respectively.

Turning to `COc1cccc(N2CCN(C(=S)SCC(=O)N(Cc3ccc(OC)c(O)c3)c3cc(OC)c(OC)c(OC)c3)CC2)c1`, the IC50 in test [1] was 75 nM; in test [2] it was 150 nM; in test [3] it was 59 nM.

Consider `COc1ccc(CN(C(=O)CSC(=S)N2CCC(OC)CC2)c2cc(OC)c(OC)c(OC)c2)cc1O`, for which the IC50 in test [1] amounted to 1260 nM; in test [2], 600 nM; in test [3] it was 890 nM.

On to `CCOC(=O)N1CCN(C(=S)SCC(=O)N(Cc2ccc(OC)c(O)c2)c2cc(OC)c(OC)c(OC)c2)CC1`, for which the IC50 was 79 nM in test [1], 89 nM in test [2] and 69 nM in test [3].

In the case of `COc1ccc(CN(C(=O)CSC(=S)N2CCN(C(=O)C3CC3)CC2)c2cc(OC)c(OC)c(OC)c2)cc1O`, the IC50 was determined as 120 nM in test [1], 100 nM in test [2] and 200 nM in test [3].

As to `COc1ccc(CN(C(=O)CSC(=S)N2CCN(c3ccccc3)CC2)c2cc(OC)c(OC)c(OC)c2)cc1O`, the figures for the IC50 in test [1], in test [2] and in test [3] were 62 nM, 78 nM and 52 nM, respectively.

Turning to `COC(=O)C1CCN(C(=S)SCC(=O)N(Cc2ccc(OC)c(O)c2)c2cc(OC)c(OC)c(OC)c2)CC1`, the IC50 in test [1] is 310 nM; in test [2], 230 nM; in test [3], 280 nM.

`COc1ccc(CN(C(=O)CSC(=S)N2CCN(S(C)(=O)=O)CC2)c2cc(OC)c(OC)c(OC)c2)cc1O`: the values for the IC50 in test [1], in test [2] and in test [3] were 230 nM, 500 nM and 430 nM, respectively.

On to `COc1ccc(CN(C(=O)CSC(=S)N2CCN(C3CC3)CC2)c2cc(OC)c(OC)c(OC)c2)cc1O`, for which the IC50 in test [1] is 120 nM; in test [2], 480 nM; in test [3] it was 210 nM.

For `C/C=C/C(=O)N(Cc1ccc(OC)c(O)c1)c1cc(OC)c(OC)c(OC)c1`, the figures for the IC50 in test [1], in test [2] and in test [3] were 28 nM, 54 nM and 62 nM, respectively.

On to `NC1CCC(N[C@@H]2C[C@H]2c2ccccc2)CC1` (stereo not given in full), for which the IC50 in test [1], in test [2] and in test [3] was greater than 20000 nM in each case.

Regarding `COc1cc2c(c(OC)c1OC)-c1ccc(OC)c(=O)cc1[C@@H](NC(C)=O)CC2` [COLCHICINE], the IC50 is 56 nM in test [1], 78 nM in test [2] and 70 nM in test [3].

Consider `COc1ccc(CN(C(=O)CSC(=S)N2CCN(C(C)(C)C)CC2)c2cc(OC)c(OC)c(OC)c2)cc1O`, for which the IC50 in test [1] worked out at 430 nM; in test [2] it was 620 nM; in test [3] it was 700 nM.

As for `COc1ccc(CN(C(=O)CSC(=S)N2CCN(c3ccc(O)cc3)CC2)c2cc(OC)c(OC)c(OC)c2)cc1O`, the IC50 in test [1] was 78 nM; in test [2], 100 nM; in test [3] it was 86 nM.

`CCCCN1CCN(C(=S)SCC(=O)N(Cc2ccc(OC)c(O)c2)c2cc(OC)c(OC)c(OC)c2)CC1`: the 50% inhibitory concentration (IC50) came out at 30 nM in test [1], 97 nM in test [2] and 73 nM in test [3].

On to `COc1ccc(CN(C(=O)CSC(=S)N2CCN(c3ccc(C#N)cc3)CC2)c2cc(OC)c(OC)c(OC)c2)cc1O`, for which the IC50 in test [1] stood at 26 nM; in test [2], 79 nM; in test [3], 37 nM.

In the case of `COc1ccc(CN(C(=O)CSC(=S)N2CCN(CCO)CC2)c2cc(OC)c(OC)c(OC)c2)cc1O`, the values for the IC50 in test [1], in test [2] and in test [3] were 540 nM, 520 nM and 490 nM, respectively.

As for `COc1ccc(CN(C(=O)CSC(=S)N2CCN(C(=O)OC(C)(C)C)CC2)c2cc(OC)c(OC)c(OC)c2)cc1O`, the IC50 is 2670 nM in test [7], 84 nM in test [1], 220 nM in test [2] and 78 nM in test [3].

With `Cc1ccc(Cn2cc(CSC(=S)N3CCN(C(=O)OC(C)(C)C)CC3)nn2)cc1`, the values for the IC50 in test [1], in test [2] and in test [3] were 2810 nM, 12800 nM and greater than 20000 nM, respectively.

With `COc1ccc(CN(C(=O)CSC(=S)N2CCC(c3ccccc3)CC2)c2cc(OC)c(OC)c(OC)c2)cc1O`, the results for the IC50 in test [1], in test [2] and in test [3] were 340 nM, 170 nM and 380 nM, respectively.

Consider `COc1ccc(CN(C(=O)CSC(=S)N2CCN(C(C)=O)CC2)c2cc(OC)c(OC)c(OC)c2)cc1O`, for which the IC50 in test [1] was 460 nM; in test [3], 340 nM.

As to `COc1ccc(CN(C(=O)CSC(=S)N2CCN(C)CC2)c2cc(OC)c(OC)c(OC)c2)cc1O`, the IC50 in test [1] worked out at 270 nM; in test [2], 820 nM; in test [3], 750 nM.

For the molecule `COc1ccc(CN(C(=O)CSC(=S)N2CCC(C(=O)OC(C)(C)C)CC2)c2cc(OC)c(OC)c(OC)c2)cc1O`, the concentration for half-maximal inhibition (IC50) in test [1] stood at 180 nM; in test [2], 110 nM; in test [3], 200 nM.

For `COc1ccc(N2CCN(C(=S)SCC(=O)N(Cc3ccc(OC)c(O)c3)c3cc(OC)c(OC)c(OC)c3)CC2)cc1`, the IC50 worked out at 45 nM in test [1], 59 nM in test [2] and 67 nM in test [3].

Values taken from ChEMBL document CHEMBL5346930, “Discovery of novel N-benzylarylamide-dithiocarbamate based derivatives as dual inhibitors of tubulin polymerization and LSD1 that inhibit gastric cancers” (Eur J Med Chem, 2023).
